Measured values: patent publication US5681826A, “Saccharide composition with reduced reducibility, and preparation and uses thereof” (Kabushiki Kaisha Hayashibara Seibutsu Kagaku Kenkyujo, priority 1994, dated 1997)
Entries after “also recorded” stand apart in the source; their conditions may differ.

Columns and labels:
[1] = Utilization test in vivo, oral administration to healthy male volunteers; parameters: species or system human; settings: 30 g oral
Experimental: In accordance with the method as reported by H. Atsuji et al. in "Rinsho-Eiyo", Vol.41, No.2, pp.200-208 (1972), 30 g of a high-purity trehalose preparation with a purity of 99.5%, d.s.b., obtained by the method in Experiment 17 was dissolved in water into a 20 w/v % aqueous solution which was then orally administered to 6 healthy male volunteers. The volunteers were collected their blood at a prescribed time interval, and each collected blood was assayed for blood sugar- and insulin-levels. As a control Glucose was used.

[2] = Maillard reaction with glycine, absorbance at 480 nm; assay type: physicochemical; settings: for Coloration degree (480 nm): one % glycine, 10% saccharide, pH 7.0, 100°C., 90 min, 1-cm cell
Experimental: A solution, containing one % glycine and 10% of a saccharide preparation PI, P II, P III, P IV or P V in Experiment 4 and 50 mM phosphate buffer (pH 7.0), was kept at 100° C. for 90 min, followed by cooling the resultant solution, and determining for absorbance at a wave length of 480 nm in a 1-cm cell. As a control, maltotriose, maltotetraose, maltopentaose, maltohexaose and maltoheptaose, as a material for the saccharide preparations, were similarly treated as above, and measured for absorbance at a wave length of 480 nm.
A solution, containing one % of glycine, 10% of a high-purity trehalose preparation with a purity of 99.5%, d.s.b., obtained by the method in Experiment 17, and 50 mM phosphate buffer (pH 7.0), was kept at 100° C. for 90 min, followed by cooling the resultant solution and determining the absorbance at a wave length of 480 nm in a 1-cm cell. As a control, glucose and maltose were similarly treated as above, and the resultants were determined for absorbance at a wave length of 480 nm.

[3] = system: trehalose derived from pig kidney; experiment: Hydrolysis of trehalose by enzyme derived from pig kidney; assay type: biochemical; settings: pH 5.7, 37°C., 18 hours (Experiment 7)
Experimental: To purify trehalose in each reaction mixture, it was subjected to column chromatography using a column packed with "XT-1016", a strong-acid cation exchange resin in Na^+ -form commercialized by Tokyo Organic Chemical Industries, Ltd., Tokyo, Japan, followed by recovering fractions containing 97% or more of trehalose. The fractions were pooled and concentrated into an about 65% solution which was then allowed to stand at 25° C. for 2 days to crystallize trehalose into hydrous crystalline trehalose, followed by separating and drying it in vacuo to obtain a high-purity trehalose preparation with a purity of 99% or more, d.s.b. The yields of trehalose from glucosyltrehalose, maltosyltrehalose, maltotriosyltrehalose, maltotetraosyltrehalose and maltopentaosyltrehalose used as a substrate were respectively 9.5%, 14.9%, 16.0%, 18.5% and 17.7%, d.s.b. The high-purity trehalose preparations and a commercially available trehalose specimen as a standard were studied for melting point, heat of fusion, specific rotation, infrared absorption spectrum, powdery X-ray diffraction pattern, and readiness of hydrolysis by a […] derived from pig kidney, commercialized by Sigma Chemical Co., St. Louise, USA.

[4] = system: α-amylase; experiment: Hydrolysis by α-amylase derived from pig pancreas; assay type: in vitro ADME
Experimental: (§1) The enzymatic reaction with the α-amylase was as follows: Dissolve 10 mg of a substrate in one ml of 50 mM phosphate buffer (pH 6.9), mix the resultant solution with one unit of the α-amylase, and incubate the resultant mixture at 37° C. for 18 hours. The enzymatic reaction with the α-glucosidase was conducted under the same conditions as in the case of α-amylase except that 50 mM acetate buffer (pH 4.0) was used as a buffer. The enzymatic reaction using the rat intestinal acetone powder was carried out under the same conditions as in the case of α-amylase except that 50 mM maleate buffer (pH 6.0) was used as a buffer. The saccharide compositions obtained by the α-amylase, α-glucosidase and rat intestinal acetone powder are respectively in Tables 6, 7 and 8.

[5] = target: T1, trehalose-releasing enzyme (Rhizobium sp. M-11, UniProt Q53238); experiment: Action of trehalose-releasing enzyme on α-glycosyltrehalose and maltooligosaccharides (Table 13); assay type: biochemical; settings: 20% substrate, 2 units/g, 40°C., pH 7.0, 48 hours; label = substrate
T1 construct: M-11 culture
T1 sequence (Q53238 1-596): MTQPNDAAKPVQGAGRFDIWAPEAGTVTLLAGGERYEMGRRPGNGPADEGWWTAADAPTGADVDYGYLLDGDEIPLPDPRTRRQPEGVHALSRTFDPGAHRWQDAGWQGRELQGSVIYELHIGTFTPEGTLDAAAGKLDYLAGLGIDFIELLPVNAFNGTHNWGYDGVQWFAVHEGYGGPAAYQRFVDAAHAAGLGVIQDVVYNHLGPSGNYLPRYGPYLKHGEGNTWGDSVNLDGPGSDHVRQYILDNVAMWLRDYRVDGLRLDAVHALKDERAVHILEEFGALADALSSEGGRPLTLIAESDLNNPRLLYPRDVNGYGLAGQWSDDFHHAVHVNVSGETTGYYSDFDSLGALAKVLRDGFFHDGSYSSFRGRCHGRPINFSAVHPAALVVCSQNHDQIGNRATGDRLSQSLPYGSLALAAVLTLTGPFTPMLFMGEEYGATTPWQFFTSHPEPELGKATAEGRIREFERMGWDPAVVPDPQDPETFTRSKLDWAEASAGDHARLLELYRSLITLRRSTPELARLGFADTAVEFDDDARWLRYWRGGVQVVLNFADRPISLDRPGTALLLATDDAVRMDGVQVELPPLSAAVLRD
Experimental: An aqueous solution containing 20%, d.s.b., of one of the above 5 non-reducing saccharide preparations, namely α-glycosyltrehalose preparations, was prepared, followed by mixing it with 2 units/g substrate, d.s.b., of the purified trehalose-releasing enzyme obtained in Experiment 15, and subjecting the resultant to an enzymatic reaction at 40° C. and pH 7.0 for 48 hours. The resultant each reaction mixture was desalted, and analyzed for saccharide composition on HPLC using "WAKOBEADS WB-T-330 column", a column of Wako Pure Chemical Industries Ltd., Tokyo, Japan. As a control, a fresh preparation of the same trehalose-releasing enzyme was allowed to act on maltotriose, maltotetraose, maltopentaose, maltohexaose or maltoheptaose, and the resultant each reaction mixture was analyzed for saccharide composition on HPLC.

[6] = Acute toxicity test (Experiment 8); settings: mouse, in vivo, po
From the text: (§2) By using 7-week old dd-strain mice, the non-reducing saccharide preparation P I, P II, P III, P IV or P V was orally administered to the mice for acute toxicity test.

[7] = system: mice; experiment: Acute toxicity test (Experiment 8); settings: oral, highest possible doses
From the text: as §2

[8] = Hydrolysis by rat intestinal acetone powder; assay type: in vitro ADME; settings: pH 6.0, 37°C., 18 hours
Experimental: as §1

[9] = Reducing power on the Somogyi-Nelson's method expressed by DE; assay type: physicochemical; settings: d.s.b.
Experimental: The reducing powders of these novel high-purity saccharides were determined on the Somogyi-Nelson's method and expressed by DE.

[10] = system: glucoamylase; experiment: Enzymatic hydrolysis by glucoamylase; assay type: biochemical
Experimental: Fifty mg aliquots of non-reducing saccharide preparations P I, P II, P III, P IV and P V in Experiment 4 were respectively dissolved in one ml of 50 mM acetate buffer (pH 4.5), admixed with one unit of glucoamylase commercialized by Seikagaku-Kogyo Co., Ltd., Tokyo, Japan, to effect enzymatic hydrolysis at 40° C. for 6 hours. HPLC analysis only detected glucose and trehalose in all resultant mixtures. The percentages and the molecular ratios of glucose to trehalose in each saccharide are in Table 5.

[11] = system: β-amylase; experiment: Hydrolysis by β-amylase; assay type: biochemical
[12] = system: α-glucosidase; experiment: Hydrolysis by α-glucosidase derived from rice; assay type: biochemical; settings: pH 4.0, 37°C., 18 hours
Experimental: as §1

[13] = one unit, pH 6.9, 37°C., 18 hours
[14] = one unit glucoamylase, pH 4.5, 40°C., 6 hours

Structure (SMILES): OC[C@H]1O[C@H](O[C@H]2O[C@H](CO)[C@@H](O)[C@H](O)[C@H]2O)[C@H](O)[C@@H](O)[C@@H]1O [Trehalose, α,α-trehalose]
- Time of maximum blood sugar level ([1]; 20 w/v % aqueous solution): 0.5 to 1 h
- Time of maximum insulin level ([1]; 20 w/v % aqueous solution): 0.5 to 1 h
- Utilization by the body ([1]; control glucose): readily assimilated, absorbed, metabolized and utilized by the body as an energy source
- Coloration degree relative to glucose or maltose [2]: 0.4-0.6%
- Maillard reaction [2]: substantially free from the maillard reaction
- Coloration degree (480 nm) [2]: 0.006
- Hydrolysis to glucose by pig kidney enzyme [3]: hydrolyzed by trehalose into glucose molecules; also recorded: decomposed into glucose molecules

Structure (SMILES): OC[C@H]1O[C@H](O[C@H]2O[C@H](CO)[C@@H](O[C@H]3O[C@H](CO)[C@@H](O[C@H]4O[C@H](CO)[C@@H](O)[C@H](O)[C@H]4O)[C@H](O)[C@H]3O)[C@H](O)[C@H]2O)[C@H](O)[C@@H](O)[C@@H]1O [P II, α-maltosyltrehalose]
- Hydrolysis by α-amylase [4]: not substantially hydrolyzed
- Saccharide composition of hydrolysate by α-amylase: G1 (glucose) [4, 13]: 0
- Saccharide composition of hydrolysate by α-amylase: G2 (maltose) [4, 13]: 0.8
- Saccharide composition of hydrolysate by α-amylase: G3 (maltotriose) [4, 13]: 0.4
- Saccharide composition of hydrolysate by α-amylase: P I [4, 13]: 0
- Saccharide composition of hydrolysate by α-amylase: P II [4, 13]: 98.8
- Percentage of reducing saccharide released (glucose, maltose, maltotriose, maltotetraose or maltopentaose) [5]: 44.4%
- Percentage of trehalose released [5]: 44.3%
- LD50 [6]: ≥ 50000 mg/kg
- Mortality [7]: no mouse died
- Saccharide composition of hydrolysate by rat intestinal acetone powder: Glucose [8]: 52.5%
- Saccharide composition of hydrolysate by rat intestinal acetone powder: Other saccharides [8]: 0.4%
- Saccharide composition of hydrolysate by rat intestinal acetone powder: Trehalose [8]: 47.1%
- DE (reducing power) [9]: 0.35
- Coloration degree relative to corresponding material maltooligosaccharides [2]: 3-6%
- Coloration degree (480 nm) [2]: 0.018
- Hydrolysis by glucoamylase [10]: hydrolyzed into 2 glucose molecules and one trehalose molecule
- Glucose [10, 14]: 52.0%
- Molecular ratio (Glucose/Trehalose) [10, 14]: 2.06
- Trehalose [10, 14]: 48.0%
- Hydrolysis by β-amylase [11]: not hydrolyzed
- Saccharide composition of hydrolysate by α-glucosidase: Glucose [12]: 52.1%
- Saccharide composition of hydrolysate by α-glucosidase: Other saccharides [12]: 0.3%
- Saccharide composition of hydrolysate by α-glucosidase: Trehalose [12]: 47.6%
